Results: patent publication US10246451B2, “Propionic acid derivatives and methods of use thereof” (Aviara Pharmaceuticals, Inc., priority 2017, dated 2019)

Experiments:
[1] = target: α4β1 integrin (Homo sapiens, UniProt P05556+P13612); assay: a4b1 IC50 (inhibition of α4β1 integrin; no method described); type: binding
[2] = target: T1, α4β7 integrin (Homo sapiens, UniProt P13612+P26010); assay: a4b7 IC50 (inhibition of α4β7 integrin; no method described); type: binding
T1 sequence (P13612 34-1032): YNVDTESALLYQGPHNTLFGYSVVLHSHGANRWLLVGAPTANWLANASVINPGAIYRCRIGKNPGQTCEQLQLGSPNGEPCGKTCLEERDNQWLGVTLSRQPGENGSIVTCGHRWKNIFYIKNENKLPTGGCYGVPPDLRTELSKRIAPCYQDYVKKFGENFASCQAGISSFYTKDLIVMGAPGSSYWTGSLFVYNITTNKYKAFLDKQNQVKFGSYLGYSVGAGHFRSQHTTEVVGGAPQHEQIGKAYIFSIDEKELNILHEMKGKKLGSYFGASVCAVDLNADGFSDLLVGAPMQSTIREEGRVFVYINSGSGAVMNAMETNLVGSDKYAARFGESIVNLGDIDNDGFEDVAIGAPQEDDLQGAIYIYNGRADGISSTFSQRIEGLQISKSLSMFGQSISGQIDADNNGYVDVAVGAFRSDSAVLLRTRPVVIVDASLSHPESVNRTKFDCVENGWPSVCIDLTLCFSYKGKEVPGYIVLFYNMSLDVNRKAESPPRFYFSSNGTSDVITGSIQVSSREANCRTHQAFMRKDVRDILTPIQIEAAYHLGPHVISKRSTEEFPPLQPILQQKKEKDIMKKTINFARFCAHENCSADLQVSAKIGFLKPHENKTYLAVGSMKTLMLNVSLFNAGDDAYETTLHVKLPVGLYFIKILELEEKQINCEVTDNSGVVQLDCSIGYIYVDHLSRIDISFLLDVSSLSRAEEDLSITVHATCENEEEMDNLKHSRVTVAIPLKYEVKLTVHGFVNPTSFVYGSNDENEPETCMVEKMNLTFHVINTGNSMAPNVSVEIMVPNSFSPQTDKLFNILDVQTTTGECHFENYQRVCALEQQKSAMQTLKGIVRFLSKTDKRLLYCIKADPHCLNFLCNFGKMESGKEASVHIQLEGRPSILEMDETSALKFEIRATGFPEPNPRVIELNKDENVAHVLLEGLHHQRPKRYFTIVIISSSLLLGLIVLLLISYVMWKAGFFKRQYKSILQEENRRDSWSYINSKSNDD
T1 sequence (P26010 20-798): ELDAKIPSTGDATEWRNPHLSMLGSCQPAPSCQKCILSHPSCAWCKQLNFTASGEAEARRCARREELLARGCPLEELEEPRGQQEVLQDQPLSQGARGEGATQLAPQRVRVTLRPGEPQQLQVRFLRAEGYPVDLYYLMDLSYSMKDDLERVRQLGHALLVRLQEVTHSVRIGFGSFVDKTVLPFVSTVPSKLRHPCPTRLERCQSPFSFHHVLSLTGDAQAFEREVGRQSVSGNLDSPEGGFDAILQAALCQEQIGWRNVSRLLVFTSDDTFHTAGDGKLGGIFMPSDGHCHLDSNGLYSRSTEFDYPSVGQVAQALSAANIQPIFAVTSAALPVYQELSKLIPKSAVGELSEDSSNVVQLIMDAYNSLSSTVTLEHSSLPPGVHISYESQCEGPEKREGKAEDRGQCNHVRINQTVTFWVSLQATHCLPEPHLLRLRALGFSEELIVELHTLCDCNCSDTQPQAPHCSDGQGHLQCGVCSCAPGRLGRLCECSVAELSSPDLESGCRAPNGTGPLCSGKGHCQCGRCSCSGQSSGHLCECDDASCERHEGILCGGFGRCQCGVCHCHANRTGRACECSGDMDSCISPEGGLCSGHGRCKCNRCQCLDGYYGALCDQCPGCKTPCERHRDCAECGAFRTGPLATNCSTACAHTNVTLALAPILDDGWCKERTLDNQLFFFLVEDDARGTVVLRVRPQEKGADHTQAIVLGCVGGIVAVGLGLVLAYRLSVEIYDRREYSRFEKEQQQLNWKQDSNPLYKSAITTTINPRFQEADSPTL

Sequence of α4β1 integrin (P05556 21-798, one chain of several): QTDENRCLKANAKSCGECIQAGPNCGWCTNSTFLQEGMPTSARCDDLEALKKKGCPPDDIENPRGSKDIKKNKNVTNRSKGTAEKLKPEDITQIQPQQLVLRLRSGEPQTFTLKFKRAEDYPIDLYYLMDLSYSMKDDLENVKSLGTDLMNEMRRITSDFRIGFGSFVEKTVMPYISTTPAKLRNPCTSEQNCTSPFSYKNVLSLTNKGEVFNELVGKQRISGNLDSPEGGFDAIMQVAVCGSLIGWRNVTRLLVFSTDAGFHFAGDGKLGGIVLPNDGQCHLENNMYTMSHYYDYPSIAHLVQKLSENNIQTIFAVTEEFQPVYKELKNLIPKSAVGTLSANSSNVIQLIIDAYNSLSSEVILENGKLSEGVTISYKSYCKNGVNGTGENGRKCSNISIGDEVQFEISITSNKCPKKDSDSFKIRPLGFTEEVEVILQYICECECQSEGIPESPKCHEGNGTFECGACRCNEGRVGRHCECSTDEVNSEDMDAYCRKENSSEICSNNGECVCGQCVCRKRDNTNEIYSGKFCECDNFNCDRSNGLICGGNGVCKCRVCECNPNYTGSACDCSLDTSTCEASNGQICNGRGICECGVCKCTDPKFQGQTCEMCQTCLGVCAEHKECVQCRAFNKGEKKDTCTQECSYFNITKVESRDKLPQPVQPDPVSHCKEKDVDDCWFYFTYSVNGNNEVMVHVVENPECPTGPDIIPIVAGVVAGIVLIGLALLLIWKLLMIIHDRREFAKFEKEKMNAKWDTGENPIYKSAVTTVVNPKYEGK

IC50 [1] | IC50 [2] | Structure (SMILES)
< 20 nM | < 200 nM | Cc1ccccc1C(F)(F)c1cccc([C@H](CC(=O)O)NC(=O)Nc2c(O)ccn(C)c2=O)c1 [Compound 3-65, sodium (S)-3-(3-(difluoro(o-tolyl)methyl)phenyl)-3-(3-(1-methyl-4-oxido-2-oxo-1,2-dihydropyridin-3-yl)ureido)propanoate]
< 200 nM | < 20 nM | Cn1ccc(O)c(NC(=O)N[C@@H](CC(=O)O)c2cccc(Oc3ccccc3)c2)c1=O [Compound 3-71, sodium (S)-3-(3-(1-methyl-4-oxido-2-oxo-1,2-dihydropyridin-3-yl)ureido)-3-(3-phenoxyphenyl)propanoate]
